Experimental findings from ChEMBL document CHEMBL1126458, “Structurally novel antiarrhythmic / antioxidant quinazolines” (Bioorg Med Chem Lett, 1992) are described below.

Data set [1] is filed under the species Canis familiaris. Put plainly: Compound was evaluated for conduction time from stimulating to intracellular recording electrode at 10 uM concentration on Isolated Canine Purkinje Fibers. In kind it is functional, Canis lupus familiaris, Purkinje fiber.
The species named for data set [2] is Canis familiaris. Put plainly: Resting potential on Isolated Canine Purkinje Fibers at 10 uM concentration. It is filed as functional, Canis lupus familiaris, Purkinje fiber.
Data set [3] is filed under the species Canis familiaris. The experiment in a line: Action potential amplitude at 10 uM concentration on Isolated Canine Purkinje Fibers was determined. It is filed as functional, Canis lupus familiaris, Purkinje fiber.
Data set [4] is filed under the species Canis familiaris. Put plainly: Action potential duration at 50% of repolarization was determined at 10 uM concentration on Isolated Canine Purkinje Fibers. It is filed as functional, Canis lupus familiaris, Purkinje fiber.
The species entered for data set [5] is Canis familiaris. Put plainly: Maximal rate of depolarization at 10 uM concentration on Isolated Canine Purkinje Fibers. It is filed as functional. The note with it: Canis lupus familiaris, Purkinje fiber.
The species entered for data set [6] is Canis familiaris. Put plainly: Action potential duration at 95% of repolarization was determined at 10 uM concentration on Isolated Canine Purkinje Fibers. In kind it is functional, Canis lupus familiaris, Purkinje fiber.
Data set [7] can be described thus: Oxidation potential as carbon paste disc electrode against a Ag/AgCl reference electrode.
Data set [8] is filed under the species Canis familiaris. Put plainly: Action potential amplitude at 100 uM concentration on Isolated Canine Purkinje Fibers was determined. In kind it is functional, Canis lupus familiaris, Purkinje fiber.
The species entered for data set [9] is Canis familiaris. Put plainly: Maximal rate of depolarization at 100 uM concentration on Isolated Canine Purkinje Fibers. It is filed as functional. Conditions: Canis lupus familiaris, Purkinje fiber; call rule not given here.
The species named for the next data set is Oryctolagus cuniculus. The experiment in a line: In vitro inhibition of iron-dependent peroxidation of rabbit brain vesicular membrane lipids. In kind it is functional.
For data set [10], the species on record is Canis familiaris. The experiment in a line: Action potential duration at 50% of repolarization was determined at 100 uM concentration on Isolated Canine Purkinje Fibers. It is filed as functional, Canis lupus familiaris, Purkinje fiber.
For data set [11], the species on record is Canis familiaris. Put plainly: Compound was evaluated for conduction time from stimulating to intracellular recording electrode at 100 uM concentration on Isolated Canine Purkinje Fibers. In kind it is functional, Canis lupus familiaris, Purkinje fiber.
The species entered for data set [12] is Canis familiaris. The experiment in a line: Resting potential on Isolated Canine Purkinje Fibers at 100 uM concentration. In kind it is functional, Canis lupus familiaris, Purkinje fiber.
Data set [13] can be described thus: Plasma concentration in dogs when measured 1 and 5 hours following initiation of reperfusion at 30 min. In kind it is ADME, organism-based, Canis lupus familiaris. The note with it: dog.
Data set [14] is described as follows: Plasma concentration in dogs when measured 1 and 5 hours following initiation of reperfusion at 300 min. In kind it is ADME, organism-based, Canis lupus familiaris. Conditions: dog.
Data set [15] is filed under the species Homo sapiens. The experiment in a line: Inhibition of C5a-induced luminol dependent chemiluminescence of human neutrophils. It is filed as functional.
A short description of data set [16]: Plasma concentration in dogs when measured 1 and 5 hours following initiation of reperfusion at 60 min. Conditions: dog. It is filed as ADME, organism-based, Canis lupus familiaris.
The species named for data set [17] is Homo sapiens. Put plainly: Inhibition of C5a-induced luminol dependent chemiluminescence of human neutrophils; NA - compound found inactive at 10 uM. It is filed as functional.
For data set [18], the species on record is Homo sapiens. The experiment in a line: Inhibition of C5a-induced luminol dependent chemiluminescence of human neutrophils; NS - Not sufficiently soluble in saline for testing. In kind it is functional.

≈ marks a conversion by molar mass, not a printed value.

Molecule `CCN(CC)c1nc(NCCNC(=O)c2ccc(F)cc2)c2ccccc2n1.O=C(O)C(=O)O` came in with a CT in the data set listed under Canis familiaris [1] of 72 ms. This molecule showed an RP in the data set filed under Canis familiaris [2] of -3 mV. In the data set listed under Canis familiaris [3], the APA is reported as -15 mV. This molecule showed an APD50 in the data set filed under Canis familiaris [4] of -48 ms. The Vmax in the data set filed under Canis familiaris [5] was -54 V s-1. In the data set filed under Canis familiaris [6], this molecule showed an APD95 of 1 ms.
`CCN(CC)c1nc(NCCNC(=O)c2cc(OC)c(OC)c(OC)c2)c2ccccc2n1` [listing 1 of 2 here] gave an E1/2 in [7] of more than 600 mV. Also, in the data set listed under Canis familiaris [5], the Vmax is -40 V s-1.
For `CCN(CC)c1nc(NCCNC(=O)c2cc(O)c(O)c(O)c2)c2ccccc2n1.CS(=O)(=O)O`, the APD50 in the data set filed under Canis familiaris [8] is on record as -13 ms; in the data set listed under Canis familiaris [4], -1 ms. Further, the CT in the data set filed under Canis familiaris [1] amounted to 7 ms; in the data set listed under Canis familiaris [11] it was 11 ms. Moreover, the Vmax is -32 V s-1 in the data set listed under Canis familiaris [9] and -2 V s-1 in the data set listed under Canis familiaris [5]. The RP in the data set filed under Canis familiaris [2] is given as 0 mV; in the data set listed under Canis familiaris [12] it was -4 mV. The MIC in the data set filed under Oryctolagus cuniculus was 3 µM. The E1/2 in data set [7] was determined as 15 mV. Moreover, the APD95 in the data set listed under Canis familiaris [10] was 11 ms; in the data set listed under Canis familiaris [6], 1 ms. Further, the values for the APA in the data set filed under Canis familiaris [11] and in the data set listed under Canis familiaris [3] were -9 mV and 0 mV, respectively. This molecule gave a concentration at 30 min in data set [13] of 240 ng/mL. This molecule also showed a concentration at 5 h in [14] of 1300 ng/mL. The molecule further gave an EC50 in the data set filed under Homo sapiens [15] of 300 nM. In [16], this molecule showed a concentration at 60 min of 1700 ng/mL.
In the case of `CCN(CC)c1nc(NCCNC(=O)c2ccc(OC)cc2)c2ccccc2n1.O=C(O)C(=O)O`, the CT in the data set listed under Canis familiaris [1] came out at 17 ms. Further, the RP in the data set filed under Canis familiaris [2] was -6 mV. Moreover, in the data set filed under Canis familiaris [3], the APA is on record as -11 mV. In the data set listed under Canis familiaris [4], the APD50 was -35 ms. For the same molecule, the Vmax in the data set filed under Canis familiaris [5] was -30 V s-1. The APD95 in the data set filed under Canis familiaris [6] is on record as -5 ms.
For `CCN(CC)c1nc(NCCNC(=O)c2cc(O)c(OC)c(O)c2)c2ccccc2n1`, in the data set listed under Oryctolagus cuniculus, the minimum inhibitory concentration (MIC) was more than 100 µM. The molecule also had an E1/2 in [7] of 320 mV. Besides, the concentration giving a half-maximal response (EC50) in the data set filed under Homo sapiens [15] was 9500 nM.
`CCN(CC)c1nc(NCCNC(=O)c2cc(OC)c(OC)c(OC)c2)c2ccccc2n1` [listing 2 of 2 here] returned a CT in the data set filed under Canis familiaris [1] of 123 ms. The molecule also displayed an RP in the data set filed under Canis familiaris [2] of -4 mV. Also, in the data set filed under Canis familiaris [3], the APA is -14.4 mV. For the same molecule, the APD50 in the data set listed under Canis familiaris [4] is listed as -46 ms. Besides, the APD95 in the data set listed under Canis familiaris [6] was -24 ms.
In turn, `CCN(CC)c1nc(NCCNC(=O)c2ccccc2OC)c2ccccc2n1` gave a CT in the data set filed under Canis familiaris [1] of 71 ms. The molecule further registered an RP in the data set filed under Canis familiaris [2] of -15 mV. Besides, the APA in the data set filed under Canis familiaris [3] is -31 mV. Moreover, the APD50 in the data set filed under Canis familiaris [4] is on record as -24 ms. Also, the Vmax in the data set filed under Canis familiaris [5] is -71 V s-1. In the data set filed under Canis familiaris [6], this molecule had an APD95 of 15 ms.
For the molecule `CCN(CC)c1nc(NCCNC(=O)c2cc(O)c(O)c(OC)c2)c2ccccc2n1`, the minimal inhibitory concentration (MIC) in the data set listed under Oryctolagus cuniculus was determined as 10 µM (≈ 4.25 µg/mL). In data set [7], this molecule registered an E1/2 of 130 mV. This molecule registered an EC50 in the data set filed under Homo sapiens [15] of 900 nM.
In the data set filed under Canis familiaris [1], `CCN(CC)c1nc(NCCNC(=O)c2ccccc2)c2ccccc2n1.O=C(O)C(=O)O` showed a CT of 119 ms. Besides, in the data set filed under Canis familiaris [2], the RP is given as -3 mV. Besides, the APA in the data set listed under Canis familiaris [3] was -15 mV. The same molecule came in with an APD50 in the data set listed under Canis familiaris [4] of -34 ms. The Vmax in the data set listed under Canis familiaris [5] was -43 V s-1. For the same molecule, the APD95 in the data set filed under Canis familiaris [6] is reported as -2 ms.
In turn, `CCN(CC)c1nc(NCCNC(=O)c2ccc(C(F)(F)F)cc2)c2ccccc2n1.O=C(O)C(=O)O` came in with a CT in the data set listed under Canis familiaris [1] of 79 ms. In addition, in the data set listed under Canis familiaris [2], the RP is -7 mV. The molecule further showed an APA in the data set listed under Canis familiaris [3] of -23 mV. In the data set filed under Canis familiaris [4], this molecule displayed an APD50 of -24 ms. For the same molecule, the Vmax in the data set filed under Canis familiaris [5] is -62 V s-1. Moreover, the APD95 in the data set listed under Canis familiaris [6] came out at 2 ms.
Turning to `CCN(CC)c1nc(NCCNC(=O)c2cc(OC)c(OC)c(OC)c2)c2ccccc2n1.CS(=O)(=O)O`, the concentration giving a half-maximal response (EC50) entry in the data set filed under Homo sapiens [17] is “Not Active”. The molecule also came in with an MIC in the data set filed under Oryctolagus cuniculus of more than 100 µM.
Regarding `CCN(CC)c1nc(NCCNC(=O)c2cc(O)c(OC)c(OC)c2)c2ccccc2n1.CS(=O)(=O)O`, the EC50 entry in the data set listed under Homo sapiens [18] is “Not Active”. Also, the minimum inhibitory concentration (MIC) in the data set filed under Oryctolagus cuniculus was more than 100 µM. In addition, the E1/2 in data set [7] is 440 mV.
Take `CCN(CC)c1nc(NCCNC(=O)c2cc(OC)c(O)c(OC)c2)c2ccccc2n1`: the MIC in the data set filed under Oryctolagus cuniculus was more than 100 µM. The molecule also had an E1/2 in [7] of 340 mV. Further, in the data set filed under Homo sapiens [15], the concentration for a half-maximal effect (EC50) was 3300 nM.
